Holding throughout (assay): Pre-emergent herbicidal activity (Table A)
Common to all, as to assay type: in vivo

One assay relates to Annual Bluegrass. Particulars: pre-emergence, Anbg, 11.2 kg/ha, 10-14 days, read-out: herbicidal rating (% inhibition). The procedure: (§1) Tables A and B summarize results of tests conducted to determine the pre-emergent herbicidal activity of the compounds of this invention. The herbicidal ratings used in Tables A and B were assigned according to a scale based on the percent inhibition of each plant species. The herbicide rating symbols in Tables A and B are defined as follows: […]
(§2) One set of pre-emergent tests was conducted as follows:
(§3) Topsoil was placed in a pan and compacted to a depth of 0.95 to 1.27 cm. from the top of the pan. A predetermined number of seeds of each of several monocotyledonous and dicotyledonous annual plant species and/or vegetative propagules of various perennial plant species were placed on top of the soil. The soil required to level fill a pan after seeding or adding vegetative propagules was weighed into another pan. A known amount of the test compound dissolved or suspended in an organic solvent or water and applied in acetone or water as a carrier was thoroughly mixed with this cover soil, and the herbicide/soil mixture was used as a cover layer for the previously prepared pan. In Table A below the amounts of active ingredient were all equivalent to an application rate of 11.2 kilograms/hectare (kg/ha). After treatment, the pans were moved to a greenhouse bench where they were watered as needed to give adequate moisture for germination and growth.
(§4) Approximately 10-14 days (usually 11 days) after planting and treating, the plants were observed and the results recorded.
(§5) The plant species usually regarded as weeds which were utilized in one set of pre-emergent activity tests, the data for which are shown in Table A, are identified by letter headings printed diagonally above the columns according to the following legend: […]

A further assay relates to Seedling Johnsongrass. Particulars: Sorghum halepense, pre-emergence, Sejg, 11.2 kg/ha, 10-14 days, read-out: herbicidal rating (% inhibition). As for the experimental part: as §1, §2, §3, §4, §5
Another assay concerns Cocklebur. The following applies: Xanthium strumarium, pre-emergence, Cobu, 11.2 kg/ha, 10-14 days, read-out: herbicidal rating (% inhibition). In outline:
(§6)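 Seeds or vegetative propagules were set on topsoil compacted to 0.95 to 1.27 cm below the pan rim, then covered with soil thoroughly mixed with a known amount of test compound in acetone or water carrier. Ratings follow a scale of percent inhibition per species.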

A further assay deals with Barnyardgrass. Particulars: Echinochloa crus-galli, pre-emergence, Bygr, 11.2 kg/ha, 10-14 days, read-out: herbicidal rating (% inhibition). In outline: as §6
The test system of another assay is Yellow Nutsedge. The following applies: Cyperus, pre-emergence, Yens, 11.2 kg/ha, 10-14 days, read-out: herbicidal rating (% inhibition). In outline:
as §6

The test system of a further assay is Morningglory. Particulars: Ipomoea, pre-emergence, Mogl, 11.2 kg/ha, 10-14 days, read-out: herbicidal rating (% inhibition). In outline:
as §6

In the next assay the test system is Downy Brome. Particulars: Bromus tectorum, pre-emergence, Dobr, 11.2 kg/ha, 10-14 days, read-out: herbicidal rating (% inhibition). In outline: as §6
The test system of the next assay is Velvetleaf. The following applies: Abutilon theophrasti, pre-emergence, Vele, 11.2 kg/ha, 10-14 days, read-out: herbicidal rating (% inhibition). In outline: as §6
The subject of another assay is Pennsylvania Smartweed. Particulars: pre-emergence, Pesw, 11.2 kg/ha, 10-14 days, read-out: herbicidal rating (% inhibition). In outline:
as §6

The subject of another assay is Common Lambsquarters. Particulars: Chenopodium album, pre-emergence, Colq, 11.2 kg/ha, 10-14 days, read-out: herbicidal rating (% inhibition). In outline:
as §6

In the next assay the test system is Rhizome Johnsongrass. Particulars: Sorghum halepense, pre-emergence, Rhjg, 11.2 kg/ha, 10-14 days, read-out: herbicidal rating (% inhibition). In outline:
as §6

For the next assay, the system named is Canada thistle. The following applies: Cirsium arvense, pre-emergence, Cath, 11.2 kg/ha, 10-14 days, read-out: herbicidal rating (% inhibition). In outline:
as §6

The test system of a further assay is Quackgrass. The following applies: pre-emergence, Rhqg, 11.2 kg/ha, 10-14 days, read-out: herbicidal rating (% inhibition). In outline:
as §6

`COC(=O)c1c(OC)nc(C(F)(F)F)c(NC(=O)CCCBr)c1CC(C)C` [Compound 120, 3-pyridinecarboxylic acid, 5-[(4-bromo-1-oxobutyl)amino]-2-methoxy-4-(2-methylpropyl)-6-(trifluoromethyl)-, methyl ester]: the inhibition (in general, the share of the control response that was lost under treatment) at 11200 g/ha lay within 75 to 100% in the assay on Annual Bluegrass; 75 to 100% with Seedling Johnsongrass; 75 to 100% in the assay with Cocklebur; 75 to 100% in the assay on Barnyardgrass; 50 to 74% in the assay on Yellow Nutsedge; 75 to 100% in the assay on Morningglory. Further, the inhibition at 11200 g/ha in the assay on Downy Brome and in the assay with Velvetleaf was 75 to 100% throughout.
For the compound `COC(=O)c1c(OC)nc(C(F)(F)F)c(C(=O)OC)c1CC(C)C` [Compound 2, 3,5-pyridinedicarboxylic acid, 2-methoxy-4-(2-methylpropyl)-6-(trifluoromethyl)-, dimethyl ester], the inhibition at 11200 g/ha in the assay with Cocklebur, in the assay with Barnyardgrass, in the assay with Pennsylvania Smartweed, in the assay on Yellow Nutsedge, with Common Lambsquarters and in the assay with Rhizome Johnsongrass was 75 to 100% throughout. For the same compound, the inhibition at 11200 g/ha in the assay with Morningglory, in the assay on Canada thistle, in the assay with Downy Brome, in the assay on Velvetleaf and in the assay on Quackgrass was 75 to 100% in each case.
For the compound `CCOC(=O)c1c(C(F)(F)F)nc(OC)c(C(=O)OC)c1CC(C)C` [Compound 44, 3,5-pyridinedicarboxylic acid, 2-methoxy-4-(2-methylpropyl)-6-(trifluoromethyl)-, 5-ethyl 3-methyl ester], the inhibition at 11200 g/ha with Cocklebur lay in the range of 25 to 49%; in the assay on Barnyardgrass, 75 to 100%; with Pennsylvania Smartweed, 75 to 100%; with Yellow Nutsedge, 75 to 100%; in the assay on Common Lambsquarters it was 75 to 100%; with Rhizome Johnsongrass it was 75 to 100%. For the same compound, the inhibition at 11200 g/ha in the assay on Morningglory, in the assay with Canada thistle, with Downy Brome, with Velvetleaf and with Quackgrass was 75 to 100% throughout.
As for `C#CCOc1nc(C(F)(F)F)c(C(=O)OC)c(CC(C)C)c1C(=O)OC` [Compound 83, 3,5-pyridinedicarboxylic acid, 4-(2-methylpropyl)-2-(2-propynyloxy)-6-(trifluoromethyl)-, dimethyl ester], the inhibition at 11200 g/ha in the assay on Cocklebur was in the range of 0 to 24%; with Barnyardgrass, 75 to 100%; with Pennsylvania Smartweed, 75 to 100%; in the assay on Yellow Nutsedge it was 0 to 24%; with Common Lambsquarters, 75 to 100%; in the assay on Rhizome Johnsongrass it was 25 to 49%. In addition, the inhibition at 11200 g/ha in the assay with Morningglory was in the range of 75 to 100%; with Canada thistle it was 25 to 49%; with Downy Brome, 75 to 100%; in the assay on Velvetleaf it was 75 to 100%; with Quackgrass, 75 to 100%.
Regarding `COC(=O)c1c(OC)nc(C(F)(F)F)c(C(=O)OC)c1C1CC1` [Compound 9, 3,5-pyridinedicarboxylic acid, 4-cyclopropy1-2-methoxy-6-(trifluoromethyl)-, dimethyl ester], the inhibition at 11200 g/ha in the assay on Cocklebur fell in the range of 0 to 24%; with Barnyardgrass, 75 to 100%; in the assay with Pennsylvania Smartweed, 75 to 100%; with Yellow Nutsedge, 75 to 100%; with Common Lambsquarters it was 75 to 100%; with Rhizome Johnsongrass, 75 to 100%. The inhibition at 11200 g/ha in the assay with Morningglory, in the assay on Canada thistle, in the assay on Downy Brome, with Velvetleaf and with Quackgrass was 75 to 100% each time.
For the compound `CCOc1nc(C(F)(F)F)c(C(=O)SC)c(CC(C)C)c1C(=O)OC` [Compound 45, 3-pyridinecarboxylic acid, 2-ethoxy-4-(2-methylpropyl)-5-[(methylthio)carbonyl]-6-(trifluoromethyl)-, methyl ester], the inhibition at 11200 g/ha fell in the range of 0 to 24% in the assay with Cocklebur; 75 to 100% with Barnyardgrass; 75 to 100% in the assay on Pennsylvania Smartweed; 75 to 100% with Yellow Nutsedge; 75 to 100% in the assay with Common Lambsquarters; 75 to 100% in the assay on Rhizome Johnsongrass. Moreover, the inhibition at 11200 g/ha with Morningglory, in the assay with Canada thistle, in the assay with Downy Brome, with Velvetleaf and in the assay on Quackgrass was 75 to 100% in each case.
In the case of `COC(=O)c1c(OC)nc(C(F)(F)F)c(C2=NCCO2)c1CC(C)C` [Compound 43, 3-pyridinecarboxylic acid, 5-(4,5-dihydro-2-oxazolyl)-2-methoxy-4-(2-methylpropyl)-6-(trifluoromethyl)-, methyl ester], the inhibition at 11200 g/ha lay within 50 to 74% in the assay with Cocklebur; 75 to 100% in the assay with Barnyardgrass; 75 to 100% in the assay on Pennsylvania Smartweed; 75 to 100% with Yellow Nutsedge; 75 to 100% in the assay with Common Lambsquarters; 75 to 100% with Rhizome Johnsongrass. Moreover, the inhibition at 11200 g/ha in the assay with Morningglory, with Canada thistle, in the assay on Downy Brome, in the assay on Velvetleaf and in the assay on Quackgrass was 75 to 100% throughout.
On to `COC(=O)c1c(OC)nc(C(F)(F)F)c(C(=O)n2cccn2)c1CC(C)C` [Compound 42, 3-pyridinecarboxylic acid, 2-methoxy-4-(2-methylpropyl)-5-(1H-pyrazo1-1-ylcarbonyl)-6-(trifluoromethyl)-, methyl ester], for which the inhibition at 11200 g/ha fell in the range of 75 to 100% with Cocklebur; 75 to 100% in the assay with Barnyardgrass; 75 to 100% in the assay on Pennsylvania Smartweed; 50 to 74% in the assay on Yellow Nutsedge; 75 to 100% in the assay on Common Lambsquarters; 50 to 74% in the assay with Rhizome Johnsongrass. Also, the inhibition at 11200 g/ha in the assay with Morningglory, in the assay with Canada thistle, in the assay on Downy Brome, in the assay with Velvetleaf and with Quackgrass was 75 to 100% throughout.
As to `CCOC(=O)c1c(OC)nc(C(F)F)c(C(=O)OC)c1CC(C)C` [Compound 26, 3,5-pyridinedicarboxylic acid, 2-(difluoromethyl)-6-methoxy-4-(2-methylpropyl)-, 5-ethyl 3-methyl ester], the inhibition at 11200 g/ha in the assay on Cocklebur was 0 to 24%; in the assay with Barnyardgrass it was 75 to 100%; with Pennsylvania Smartweed, 75 to 100%; in the assay with Yellow Nutsedge, 0 to 24%; with Common Lambsquarters, 75 to 100%; in the assay on Rhizome Johnsongrass, 75 to 100%. For the same compound, the inhibition at 11200 g/ha in the assay with Morningglory, in the assay on Canada thistle, in the assay on Downy Brome, in the assay with Velvetleaf and in the assay on Quackgrass was 75 to 100% in each case.
For the compound `COC(=O)c1c(OC)nc(C(F)(F)F)c(C(=O)N2CCCC2)c1CC(C)C` [Compound 66, 3-pyridinecarboxylic acid, 2-methoxy-4-(2-methylpropyl)-5-(1-pyrrolidinylcarbonyl)-6-(trifluoromethyl)-, methyl ester], the inhibition at 11200 g/ha in the assay with Cocklebur lay within 0 to 24%; with Barnyardgrass it was 75 to 100%; in the assay on Pennsylvania Smartweed, 25 to 49%; in the assay on Yellow Nutsedge, 0 to 24%; with Common Lambsquarters, 75 to 100%; in the assay with Rhizome Johnsongrass it was 0 to 24%. The inhibition at 11200 g/ha lay within 50 to 74% in the assay on Morningglory; 75 to 100% in the assay on Canada thistle; 75 to 100% in the assay on Downy Brome; 25 to 49% in the assay with Velvetleaf; 75 to 100% in the assay on Quackgrass.

The record behind these values is patent US5391540A, “Substituted pyridine compounds” (Rohm and Haas Company, priority 1993, dated 1995).
